One molecule from patent publication US20250250298A1, “ONCOLYTIC PEPTIDE AND USE THEREOF” (Rise Biopharmaceuticals Inc., priority 2022, published 2025) can be followed below.

Where a SMILES comes first, the peptide text is derived from it.

Data set [1] has as its system SAS (Human tongue carcinoma). Put plainly: MTT cytotoxicity, SAS. The note with it: 24 hours incubation. Type of data set: cell-based. From the text:
(§1) The MTT assay is a colorimetric method for measuring the activity of enzymes in living cells that reduces Thiazolyl blue tetrazolium bromide (MTT) to formazan dyes showing a purple color. In this embodiment, a colorimetric 3-(4.5-dimethylthiazol-2-yl)-2.5-diphenyltetrazodium bromide (MTT) viability assay was used to assess the in vitro cytotoxicity of oncolytic peptides.
(§2) The half inhibition concentration (IC50) is the concentration required by the oncolytic peptides to reach fifty percent inhibition. In one embodiment, the oncolytic peptides were used for IC50 test via MTT colorimetric assay.
(§3) All cancer cell lines were seeded in a 96-well plate with a concentration of 5000-8000 cells/100 μl/well and incubated for 24 hrs. After medium was removed, 100 μl fresh medium containing peptide (ranging from 50 μM to 0.8 μM) was added to the wells. Following 24 hours incubation, fresh medium with MTT (0.5 mg/ml) was replaced and incubated for 3 hours. After medium/MTT was removed, DMSO was added at 100 μl for dissolving the formazan crystal. Cell survival rate was calculated by measuring the absorbance at 540 nm using a Multi-labeled Microplate Reader (Sunrise™, TECAN).

The next data set has as its system Panc02. Put plainly: MTT cytotoxicity, Panc02. The conditions noted are these: Panc02, 24 hours incubation. Type of data set: cell-based, murine.
Excerpt: as §1, §2
(§4) Human lung cancer lines PC9 and A549 and murine pancreatic cancer cell line Panc02 were cultured in RPMI medium supplemented with 10% fetal bovine serum and antibiotic in this embodiment. Additionally, murine hepatoma cell line Hepa 1-6, murine melanoma cell line B16-F10, murine fibrosarcoma cell line MN-11, murine mammary cancer cell line E0771 and human diploid fibroblast (HFW) were cultured in DMEM medium supplemented with 10% fetal bovine serum and antibiotic. Cells were cultured in a humidified incubator containing 5% CO2 at 37° C.
as §3

Data set [2] relates to A549 (Human non-small cell lung cancer cell). Briefly: MTT cytotoxicity, A549. The format is cell-based. The conditions noted are these: A549, 24 hours incubation.
Excerpt: as §1, §2, §4, §3

Data set [3] concerns HCT-15 (Human colorectal cancer). Put plainly: MTT cytotoxicity, HCT-15. Type of data set: cell-based. The conditions noted are these: HCT-15, 24 hours incubation.
Excerpt: as §1, §2, §3

Data set [4] has as its system MN-11 (Murine fibrosarcoma). Put plainly: MTT cytotoxicity, MN-11. The conditions noted are these: MN-11, 24 hours incubation. Type of data set: cell-based.
Excerpt: as §1, §2, §4, §3

The test system of data set [5] is C9 (Human oral cancer cell). Put plainly: MTT cytotoxicity, C9. The note with it: C9, 24 hours incubation. The format is cell-based.
Excerpt: as §1, §2, §3

The subject of another data set is RBC (Human blood cell). Briefly: Cytotoxicity, RBC. The format is cell-based.
Excerpt: as §2

The nature of data set [6]: Peptide stability in serum. Type of data set: in vitro ADME. The conditions noted are these: 25% (vol/vol) bovine calf serum. The protocol:
Since this kind of peptide is highly toxic, the hope is that the peptide can be decomposed after inducing cancer cells to release danger-associated molecular patterns (DAMPs), and will not stay in the body for too long. After exposure to 25% (vol/vol) bovine calf serum, the residues of peptides were analyzed by liquid chromatography, and the stability at different time points was calculated.

The subject of a further data set is B16-F10 melanoma. Type of data set: in vivo. The conditions noted are these: B16-F10 tumor-bearing C57BL/6 mice. As for the experimental part: FIGS. 1A-1B are schematic diagrams of B16-F10 melanoma experiments. The right flank of the mouse was administrated with SEQ ID NO:9, and the left flank of the mouse was untreated (tumor only) in FIG. 1A. […] (3×10^6B16-F10 cells per mouse/50 μl RPMI-1640). Palpable tumors (20-30 mm^3) were injected […] (IT.) with single doses of SEQ ID NO:9 dissolved in PBS (1.0 mg peptide/50 μl PBS) once a day for 5 consecutive days, and the vehicle control was saline only (0.9% NaCl).
Female C57BL/6 mice (4- to 6-week old) as allogeneic model animals were purchased from BioLASCO Taiwan Co., Ltd. and maintained in a specific pathogen-free and controlled environment. During the experiments, female mice, weighing 18.0-24.0 g each, were kept in groups of 4 to 6 animals per cage under climate-controlled conditions, with 12 h light/dark cycles and an ambient temperature. The mice were housed in an enriched individually ventilated cage (IVC) system with free access to standard rodent chow and water ad libitum. The animals were anesthetized during the experimental procedures with 2.5% isoflurane gas. The animals were monitored daily. All procedures were conducted according to the regulations of Laboratory Animal Care and Use Committee or Group Setup and Management and the law of Animal Protection.
Palpable tumors (for example, 20-30 mm^3 for B16-F10 tumor-bearing mice, 100 mm^3 for MN-11 tumor-bearing mice, 75 mm^3 for E0771 tumor-bearing mice) were injected (IT.) with single doses of SEQ ID NO:9 dissolved in PBS (1.0 mg peptide/50 μl PBS) once a day for 5 consecutive days, and the vehicle control was saline only (0.9% NaCl).
Tumor size was measured 3 times a week using a caliper, and the volume of tumors was calculated using the following formula: Tumor size (mm^3)=0.5×(width^2×length). The results were shown as volume±SEM. The survival rates of tumor-bearing mice were observed and recorded continuously until all animals died.
To evaluate the effect of SEQ ID NO:9 in vivo, the B16-F10 allogeneic model was used in C57BL/6 mice (FIGS. 1A-1B). […]

The subject of data set [7] is A375 (human malignant melanoma). Briefly: MTT cytotoxicity, A375. The format is cell-based. The conditions noted are these: A375, 24 hours incubation.
Excerpt: as §1, §2, §3

Data set [8] relates to NCI-N87 (Human gastric carcinoma). Briefly: MTT cytotoxicity, NCI-N87. The format is cell-based. The note with it: NCI-N87, 24 hours incubation.
Excerpt: as §1, §2, §3

Data set [9] relates to Hepa I-6 (Murine hepatocellular carcinoma). Put plainly: MTT cytotoxicity, Hepa 1-6. Type of data set: cell-based. The conditions noted are these: Hepa I-6, 24 hours incubation.
Excerpt: as §1, §2, §4, §3

The subject of data set [10] is B16-F10 (Murine skin malignant melanoma). Put plainly: MTT cytotoxicity, B16-F10. Type of data set: cell-based. The conditions noted are these: B16-F10, 24 hours incubation.
Excerpt: as §1, §2, §4, §3

The subject of data set [11] is HepG2 Cancer Cells (Human hepatocellular carcinoma). Briefly: MTT cytotoxicity, HepG2. The format is cell-based. The conditions noted are these: HepG2, 24 hours incubation.
Excerpt: as §1, §2, §3

The term IC50 denotes the point on the concentration scale where inhibition reaches its midpoint. Lower therefore signals inhibition by little substance. In the case of `CC(C)C[C@H](NC(=O)[C@H](Cc1ccc2ccccc2c1)NC(=O)[C@H](CCCCN)NC(=O)[C@H](CC(C)C)NC(=O)[C@H](Cc1c[nH]c2ccccc12)NC(=O)[C@H](CCCCN)NC(=O)[C@H](CCCNC(=N)N)NC(=O)[C@H](Cc1c[nH]c2ccccc12)NC(=O)[C@H](CCCNC(=N)N)NC(=O)[C@H](CCCNC(=N)N)NC(=O)[C@H](CCCCN)NC(=O)[C@H](CCCCN)NC(=O)[C@H](CCCCN)NC(=O)[C@@H](N)CCCCN)C(=O)N[C@@H](C)C(=O)N[C@@H](CCCCN)C(N)=O` [SEQ ID NO: 9, KKKK-RR-WRK-WLK-Nal-LA-K-NH2] (HELM PEPTIDE1{K.K.K.K.R.R.W.R.K.W.L.K.[O=C([C@H](Cc1ccc2ccccc2c1)N[*:1])[*:2]].L.A.K.[am]}$$$$V2.0; N-terminus assumed), the IC50 in data set [1] turned out to be 6.03 µM; in the data set on Panc02, 2660 nM; in data set [2], 2790 nM; in data set [3] it was 2420 nM; in data set [4], 2900 nM; in data set [5] it was 6.43 µM. Besides, the IC50 in the data set on RBC (Human blood cell) worked out at 25.7 µM; in [7], 3.84 µM; in data set [8], 2350 nM; in [9], 1690 nM; in [10], 7.16 µM; in data set [11], 9.81 µM. Moreover, the “Serum stability (residual peptide)” value in data set [6] (0 hr) worked out at 100.00%. Moreover, in data set [6] (0.5 hr, read-out: Serum stability (residual peptide)), the remaining at 0.5 h came out at 90.7%. Moreover, the remaining at 1 h in [6] (1 hr, read-out: Serum stability (residual peptide)) is 76.2%. The remaining at 2 h in data set [6] (2 hr, read-out: Serum stability (residual peptide)) is 77.9%. Further, in data set [6] (4 hr, read-out: Serum stability (residual peptide)), the remaining at 4 h is 70.9%. In data set [6] (6 hr, read-out: Serum stability (residual peptide)), the remaining at 6 h was 74.2%. In addition, the remaining at 8 h in data set [6] (8 hr, read-out: Serum stability (residual peptide)) was 55.8%. In the data set with B16-F10 melanoma (IT. 1.0 mg once a day for 5 days, vs untreated controls), the “Survival (lifespan)” value is listed as “extended the lifespan”. The “Tumor growth, treated tumor (right flank)” value in the data set on B16-F10 melanoma (IT. 1.0 mg peptide/50 μl PBS once a day for 5 consecutive days, vs saline control) was “significantly inhibited tumor growth”. For the same molecule, in the data set with B16-F10 melanoma (untreated left flank, peptide IT. into right flank 1.0 mg once a day for 5 days), the “Tumor growth, distal tumor (left side)” value was “also inhibited”.
